Laboratory results taken from the supplement of paper PMC10307832.

Experiments:
Assay in all cases: relative viability (nuclei count vs DMSO), 5 days (fraction); higher = more cells survive
[1] = test system: 201T
Procedure, shortened: (§1)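 A single step with final 0.05% Triton X-100, 1% formaldehyde and 1 ug/ml Hoechst fixed the cells and stained nuclei 5 days after treatment. Lung cancer cell lines in 1536-well plates had been treated by pin tool the day after seeding with one drug alone or a fixed anchor-drug dose plus five library-drug doses (not always all listed) in √10 steps, and nuclei were counted on 4× images. Relative viability is the ratio of nuclei in treated wells to nuclei in vehicle wells, taken as the median of duplicate plates.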

[2] = test system: COR-L 105
Procedure, shortened: as §1

[3] = test system: COR-L23
Procedure, shortened: as §1

[4] = test system: EKVX
Procedure, shortened: as §1

[5] = test system: EPLC-272H
Procedure, shortened: as §1

[6] = test system: H3255
Procedure, shortened: as §1

[7] = test system: HCC-15
Procedure, shortened: as §1

[8] = test system: HCC-827
Procedure, shortened: as §1

[9] = test system: LCLC-97TM1
Procedure, shortened: as §1

[10] = test system: NCI-H1395
Procedure, shortened: as §1

[11] = test system: NCI-H1648
Procedure, shortened: as §1

[12] = test system: NCI-H1650
Procedure, shortened: as §1

[13] = test system: NCI-H1651
Procedure, shortened: as §1

[14] = test system: NCI-H1792
Procedure, shortened: as §1

[15] = test system: NCI-H1915
Procedure, shortened: as §1

[16] = test system: NCI-H2023
Procedure, shortened: as §1

[17] = test system: NCI-H322M
Procedure, shortened: as §1

[18] = test system: NCI-H358
Procedure, shortened: as §1

[19] = test system: NCI-H460
Procedure, shortened: as §1

[20] = test system: NCI-H520
Procedure, shortened: as §1

[21] = test system: NCI-H596
Procedure, shortened: as §1

[22] = test system: NCI-H647
Procedure, shortened: as §1

[23] = test system: SK-MES-1
Procedure, shortened: as §1

[24] = test system: SW 900
Procedure, shortened: as §1

`C=C1C(=O)O[C@@H](CCCCCCCC)[C@@H]1C(=O)O` [C-75] + O=C(c1cc(Cc2n[nH]c(=O)c3ccccc23)ccc1F)N1CCN(C(=O)C2CC2)CC1 [Olaparib] (partner 8 µM) was tested, and the relative viability ([1]; first compound 0.08 µM) was 0.812, the relative viability ([1]; first compound 0.253 µM) was 0.897 and the relative viability ([1]; first compound 0.8 µM) was 0.84. It also gave a relative viability ([1]; first compound 2.53 µM) of 0.605, a relative viability ([1]; first compound 8 µM) of 0.87 and a relative viability ([2]; first compound 0.08 µM) of 0.719. It also gave a relative viability ([2]; first compound 0.253 µM) of 0.75, a relative viability ([2]; first compound 0.8 µM) of 0.668 and a relative viability ([2]; first compound 2.53 µM) of 0.62. For the same compound, the relative viability ([2]; first compound 8 µM) was 0.523, the relative viability ([3]; first compound 0.08 µM) was 0.353 and the relative viability ([3]; first compound 0.253 µM) was 0.216. The relative viability ([3]; first compound 0.8 µM) was 0.284, the relative viability ([3]; first compound 2.53 µM) was 0.325 and the relative viability ([3]; first compound 8 µM) was 0.319. The relative viability ([4]; first compound 0.08 µM) was 0.811, the relative viability ([4]; first compound 0.253 µM) was 0.884 and the relative viability ([4]; first compound 0.8 µM) was 0.837. The relative viability ([4]; first compound 8 µM) was 0.759, the relative viability ([5]; first compound 0.08 µM) was 0.874 and the relative viability ([5]; first compound 0.253 µM) was 0.878. It also gave a relative viability ([5]; first compound 0.8 µM) of 0.702, a relative viability ([5]; first compound 2.53 µM) of 0.701 and a relative viability ([5]; first compound 8 µM) of 0.436. The relative viability ([6]; first compound 0.08 µM) was 0.629, the relative viability ([6]; first compound 0.253 µM) was 0.581 and the relative viability ([6]; first compound 0.8 µM) was 0.583. For the same compound, the relative viability ([6]; first compound 2.53 µM) was 0.537, the relative viability ([6]; first compound 8 µM) was 0.573 and the relative viability ([7]; first compound 0.08 µM) was 0.686. For the same compound, the relative viability ([7]; first compound 0.253 µM) was 0.752, the relative viability ([7]; first compound 0.8 µM) was 0.672 and the relative viability ([7]; first compound 2.53 µM) was 0.612. The relative viability ([7]; first compound 8 µM) was 0.785, the relative viability ([8]; first compound 0.253 µM) was 0.622 and the relative viability ([8]; first compound 0.8 µM) was 0.595. It also gave a relative viability ([8]; first compound 8 µM) of 0.657, a relative viability ([9]; first compound 0.08 µM) of 0.349 and a relative viability ([9]; first compound 0.253 µM) of 0.402. For the same compound, the relative viability ([9]; first compound 0.8 µM) was 0.494, the relative viability ([9]; first compound 2.53 µM) was 0.338 and the relative viability ([9]; first compound 8 µM) was 0.303. For the same compound, the relative viability ([10]; first compound 0.08 µM) was 0.423, the relative viability ([10]; first compound 0.253 µM) was 0.433 and the relative viability ([10]; first compound 2.53 µM) was 0.465. It also gave a relative viability ([10]; first compound 8 µM) of 0.511, a relative viability ([11]; first compound 0.08 µM) of 0.921 and a relative viability ([11]; first compound 0.253 µM) of 1.3. The relative viability ([11]; first compound 0.8 µM) was 0.597, the relative viability ([11]; first compound 8 µM) was 1.03 and the relative viability ([12]; first compound 0.08 µM) was 0.802. The relative viability ([12]; first compound 0.253 µM) was 0.878, the relative viability ([12]; first compound 0.8 µM) was 0.827 and the relative viability ([12]; first compound 8 µM) was 0.818. For the same compound, the relative viability ([13]; first compound 0.08 µM) was 0.196, the relative viability ([13]; first compound 0.253 µM) was 0.206 and the relative viability ([13]; first compound 0.8 µM) was 0.189. For the same compound, the relative viability ([13]; first compound 2.53 µM) was 0.173, the relative viability ([13]; first compound 8 µM) was 0.167 and the relative viability ([14]; first compound 0.08 µM) was 0.384. It also gave a relative viability ([14]; first compound 0.253 µM) of 0.438, a relative viability ([14]; first compound 0.8 µM) of 0.462 and a relative viability ([14]; first compound 2.53 µM) of 0.306. For the same compound, the relative viability ([14]; first compound 8 µM) was 0.431, the relative viability ([15]; first compound 0.08 µM) was 0.243 and the relative viability ([15]; first compound 0.253 µM) was 0.242. It also gave a relative viability ([15]; first compound 0.8 µM) of 0.261, a relative viability ([15]; first compound 2.53 µM) of 0.262 and a relative viability ([15]; first compound 8 µM) of 0.257. For the same compound, the relative viability ([16]; first compound 0.08 µM) was 0.529, the relative viability ([16]; first compound 0.253 µM) was 0.579 and the relative viability ([16]; first compound 0.8 µM) was 0.436. For the same compound, the relative viability ([16]; first compound 8 µM) was 0.395, the relative viability ([17]; first compound 0.08 µM) was 0.764 and the relative viability ([17]; first compound 0.253 µM) was 0.965. For the same compound, the relative viability ([17]; first compound 0.8 µM) was 0.754, the relative viability ([17]; first compound 8 µM) was 0.764 and the relative viability ([18]; first compound 0.08 µM) was 0.642. It also gave a relative viability ([18]; first compound 0.253 µM) of 0.623, a relative viability ([18]; first compound 0.8 µM) of 0.534 and a relative viability ([18]; first compound 8 µM) of 0.575. For the same compound, the relative viability ([19]; first compound 0.08 µM) was 0.413, the relative viability ([19]; first compound 0.253 µM) was 0.503 and the relative viability ([19]; first compound 0.8 µM) was 0.366. The relative viability ([19]; first compound 2.53 µM) was 0.356, the relative viability ([19]; first compound 8 µM) was 0.377 and the relative viability ([20]; first compound 0.08 µM) was 0.343. The relative viability ([20]; first compound 0.253 µM) was 0.358, the relative viability ([20]; first compound 0.8 µM) was 0.269 and the relative viability ([20]; first compound 2.53 µM) was 0.321. For the same compound, the relative viability ([20]; first compound 8 µM) was 0.257, the relative viability ([21]; first compound 0.08 µM) was 0.73 and the relative viability ([21]; first compound 0.253 µM) was 0.686. For the same compound, the relative viability ([21]; first compound 0.8 µM) was 0.626, the relative viability ([21]; first compound 2.53 µM) was 0.601 and the relative viability ([21]; first compound 8 µM) was 0.656. It also gave a relative viability ([22]; first compound 0.08 µM) of 0.522, a relative viability ([22]; first compound 0.253 µM) of 0.727 and a relative viability ([22]; first compound 0.8 µM) of 0.452. It also gave a relative viability ([22]; first compound 2.53 µM) of 0.495, a relative viability ([22]; first compound 8 µM) of 0.354 and a relative viability ([23]; first compound 0.08 µM) of 0.78. The relative viability ([23]; first compound 0.253 µM) was 0.772, the relative viability ([23]; first compound 0.8 µM) was 0.724 and the relative viability ([23]; first compound 2.53 µM) was 0.638. The relative viability ([23]; first compound 8 µM) was 0.64, the relative viability ([24]; first compound 0.08 µM) was 0.923 and the relative viability ([24]; first compound 0.253 µM) was 0.945. It also gave a relative viability ([24]; first compound 0.8 µM) of 1.05, a relative viability ([24]; first compound 2.53 µM) of 0.803 and a relative viability ([24]; first compound 8 µM) of 0.977.
